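Test compounds were applied to cells in 96-well plates for 48 hours at 5 doses. Abbreviation: GI50, concentration required for 50% inhibition of growth.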 Active and inactive are the calls of the source. Rule as the data show it: active = GI50 up to about 1.1 µM and inactive = higher. Where a SMILES comes first, the peptide text is derived from it. [ ]: non-standard residue; d: D form. The star is where a group is joined. ξ: configuration not given here. ξF = NC(Cc1ccccc1)C(=O)O; Cbz = O=C(OCc1ccccc1)*; Aib = CC(C)(N)C(=O)O; NHNH2 = NN*
Key:
Assay in all cases: inhibition of tumour cell growth, NCI panel, 48 h
A498 = test system: A498
ACHN = test system: ACHN
BT-549 = test system: BT-549
CAKI-1 = test system: CAKI-1
EKVX = test system: EKVX
HT-29 = test system: HT-29
KM12 = test system: KM12
MDA-MB-231 = test system: MDA-MB-231
NCI-H226 = test system: NCI-H226
NCI-H460 = test system: NCI-H460
OVCAR-5 = test system: OVCAR-5
RXF 393 = test system: RXF 393
SF-539 = test system: SF-539
SK-MEL-28 = test system: SK-MEL-28
SK-MEL-5 = test system: SK-MEL-5
SNB-19 = test system: SNB-19
SNB-75 = test system: SNB-75
SR = test system: SR
HL-60 = test system: HL-60

SMILES | GI50 (A498) | GI50 (ACHN) | GI50 (BT-549) | GI50 (CAKI-1) | GI50 (EKVX) | GI50 (HT-29) | GI50 (KM12) | GI50 (MDA-MB-231) | GI50 (NCI-H226) | GI50 (NCI-H460) | GI50 (OVCAR-5) | GI50 (RXF 393) | GI50 (SF-539) | GI50 (SK-MEL-28) | GI50 (SK-MEL-5) | GI50 (SNB-19) | GI50 (SNB-75) | GI50 (SR) | GI50 (HL-60)
COC(=O)c1cc(=O)n(-c2ccc3nn(C)nc3c2)cc1C(=O)OC | > 100 µM (inactive) | > 100 µM (inactive) | > 100 µM (inactive) | > 100 µM (inactive) | > 100 µM (inactive) | > 100 µM (inactive) | > 100 µM (inactive) | > 100 µM (inactive) | > 100 µM (inactive) | > 100 µM (inactive) | > 100 µM (inactive) | > 100 µM (inactive) | > 100 µM (inactive) | > 100 µM (inactive) | > 100 µM (inactive) | > 100 µM (inactive) | > 100 µM (inactive) | > 100 µM (inactive) | –
C=Cc1nc2nnc(CCCCCCCCc3nnc4nc(C=C)[nH]n34)n2[nH]1 | 40.7 µM (inactive) | > 100 µM (inactive) | > 100 µM (inactive) | > 100 µM (inactive) | 61.5 µM (inactive) | > 100 µM (inactive) | > 100 µM (inactive) | 95.5 µM (inactive) | > 100 µM (inactive) | 57.8 µM (inactive) | > 100 µM (inactive) | > 100 µM (inactive) | > 100 µM (inactive) | > 100 µM (inactive) | 41.6 µM (inactive) | > 100 µM (inactive) | > 100 µM (inactive) | – | 34 µM (inactive)
O=c1c(Br)c(-c2ccccc2)[s+]([O-])c2ccccc12 (stereo not drawn) | – | 2.52 µM (inactive) | 17.9 µM (inactive) | 9.12 µM (inactive) | 16.4 µM (inactive) | 13.2 µM (inactive) | 15.8 µM (inactive) | 14.8 µM (inactive) | 15.8 µM (inactive) | 17.9 µM (inactive) | 21.5 µM (inactive) | 12.2 µM (inactive) | 3.01 µM (inactive) | 13 µM (inactive) | 11.5 µM (inactive) | 18.2 µM (inactive) | 16.2 µM (inactive) | 2.06 µM (inactive) | 2.11 µM (inactive)
CC(C)OC(=O)/C=C/C(=O)O/C=C/[N+](=O)[O-] | 14.1 µM (inactive) | > 100 µM (inactive) | 41.8 µM (inactive) | 34 µM (inactive) | 18.2 µM (inactive) | 24.5 µM (inactive) | 21.5 µM (inactive) | 36.5 µM (inactive) | 39.9 µM (inactive) | 60.7 µM (inactive) | 37.6 µM (inactive) | 18.3 µM (inactive) | 37.1 µM (inactive) | 26.7 µM (inactive) | 31.6 µM (inactive) | 31.7 µM (inactive) | – | 24.4 µM (inactive) | –
CC(C)(NC(=O)OCc1ccccc1)C(=O)NC(Cc1ccccc1)C(=O)NN (stereo not drawn) (Cbz-[Aib]-[ξF]-NHNH2) | > 100 µM (inactive) | > 100 µM (inactive) | > 100 µM (inactive) | > 100 µM (inactive) | > 100 µM (inactive) | > 100 µM (inactive) | > 100 µM (inactive) | > 100 µM (inactive) | > 100 µM (inactive) | > 100 µM (inactive) | > 100 µM (inactive) | > 100 µM (inactive) | > 100 µM (inactive) | > 100 µM (inactive) | > 100 µM (inactive) | > 100 µM (inactive) | > 100 µM (inactive) | – | –
N#Cc1nc(C2CC2)oc1N | – | > 100 µM (inactive) | > 100 µM (inactive) | > 100 µM (inactive) | > 100 µM (inactive) | > 100 µM (inactive) | 25.7 µM (inactive) | > 100 µM (inactive) | > 100 µM (inactive) | – | > 100 µM (inactive) | > 100 µM (inactive) | > 100 µM (inactive) | > 100 µM (inactive) | – | > 100 µM (inactive) | > 100 µM (inactive) | > 100 µM (inactive) | –
Cc1nc2n(c1/C=C1/C(=O)Nc3ccccc31)CCS2 | 31.2 µM (inactive) | 75.3 µM (inactive) | 41.3 µM (inactive) | 42.1 µM (inactive) | 46.7 µM (inactive) | 38.4 µM (inactive) | 31.1 µM (inactive) | 32.7 µM (inactive) | – | 35.7 µM (inactive) | > 100 µM (inactive) | 18.7 µM (inactive) | 41.5 µM (inactive) | 78 µM (inactive) | 31.5 µM (inactive) | > 100 µM (inactive) | 17.3 µM (inactive) | – | 32.1 µM (inactive)
O=C(/C=C/c1ccc(-c2ccccc2)cc1)NCc1ccc(C(=O)NCc2ccccc2)cc1 | > 100 µM (inactive) | > 100 µM (inactive) | > 100 µM (inactive) | > 100 µM (inactive) | > 100 µM (inactive) | 71.1 µM (inactive) | > 100 µM (inactive) | > 100 µM (inactive) | > 100 µM (inactive) | > 100 µM (inactive) | > 100 µM (inactive) | 12.7 µM (inactive) | > 100 µM (inactive) | > 100 µM (inactive) | > 100 µM (inactive) | > 100 µM (inactive) | > 100 µM (inactive) | – | –
O=C(O)c1ccccc1-c1ccccc1C(=O)Nc1ccc2c(c1)nc(O)c1ccccc12 | 34.3 µM (inactive) | > 100 µM (inactive) | 52.4 µM (inactive) | > 100 µM (inactive) | > 100 µM (inactive) | > 100 µM (inactive) | > 100 µM (inactive) | 88.9 µM (inactive) | > 100 µM (inactive) | > 100 µM (inactive) | > 100 µM (inactive) | > 100 µM (inactive) | 94.2 µM (inactive) | > 100 µM (inactive) | > 100 µM (inactive) | 83.4 µM (inactive) | 93.3 µM (inactive) | – | 94.8 µM (inactive)
O=C(CCc1ccccc1)ON1C(=S)C(c2ccccc2)(c2ccccc2)N=C1Sc1ccccc1 | > 100 µM (inactive) | 48.1 µM (inactive) | 54 µM (inactive) | 74.1 µM (inactive) | 26.6 µM (inactive) | 24.5 µM (inactive) | 32.6 µM (inactive) | > 100 µM (inactive) | 45.3 µM (inactive) | 12.4 µM (inactive) | > 100 µM (inactive) | > 100 µM (inactive) | 44.6 µM (inactive) | – | 37.5 µM (inactive) | 52.7 µM (inactive) | 37.9 µM (inactive) | – | 31.6 µM (inactive)
NC1(CCNC(=O)c2ccccc2)CCN(C(=O)c2ccccc2)CC1 | – | > 100 µM (inactive) | > 100 µM (inactive) | > 100 µM (inactive) | > 100 µM (inactive) | > 100 µM (inactive) | > 100 µM (inactive) | > 10 µM (inactive) | > 100 µM (inactive) | > 100 µM (inactive) | > 100 µM (inactive) | > 100 µM (inactive) | > 100 µM (inactive) | – | > 100 µM (inactive) | > 100 µM (inactive) | 0.548 µM (active) | > 100 µM (inactive) | –
COC(=O)c1ccc2[nH]c3c(c2c1)CC(=O)Nc1ccccc1-3 | > 100 µM (inactive) | > 100 µM (inactive) | 1.86 µM (inactive) | 56 µM (inactive) | 26.2 µM (inactive) | > 100 µM (inactive) | > 100 µM (inactive) | 12.4 µM (inactive) | 7.31 µM (inactive) | > 100 µM (inactive) | 60.3 µM (inactive) | – | 2.94 µM (inactive) | > 100 µM (inactive) | > 100 µM (inactive) | > 100 µM (inactive) | 2.3 µM (inactive) | 7.28 µM (inactive) | –
CN[C@H]1CC[C@]23C[C@]24CC[C@]2(C)[C@@H]([C@H](C)N(C)C)CC[C@@]2(C)[C@@H]4CC[C@H]3C1(C)C | 20.6 µM (inactive) | 15.6 µM (inactive) | 12.7 µM (inactive) | 21.9 µM (inactive) | 18.2 µM (inactive) | 2.85 µM (inactive) | 15 µM (inactive) | 21.1 µM (inactive) | 16.5 µM (inactive) | 18.2 µM (inactive) | 21 µM (inactive) | – | 11.2 µM (inactive) | 12.4 µM (inactive) | 15.1 µM (inactive) | 16.7 µM (inactive) | 14.4 µM (inactive) | – | 10.8 µM (inactive)
O=C1/C(=C/c2cccc(Cl)c2)CCCc2ccccc21 | – | 16.1 µM (inactive) | 19.7 µM (inactive) | 24.1 µM (inactive) | 16.7 µM (inactive) | 15.8 µM (inactive) | 17.9 µM (inactive) | 18.2 µM (inactive) | 16.1 µM (inactive) | 15.7 µM (inactive) | 16.5 µM (inactive) | – | 17.9 µM (inactive) | 17.3 µM (inactive) | – | 14.9 µM (inactive) | 15.6 µM (inactive) | 11.6 µM (inactive) | 11.9 µM (inactive)
O=Cc1c(-c2ccccc2)nc2ccccc2c1O | 81.8 µM (inactive) | > 100 µM (inactive) | > 100 µM (inactive) | 43.4 µM (inactive) | 85.1 µM (inactive) | 39.9 µM (inactive) | 30.3 µM (inactive) | 64.6 µM (inactive) | > 100 µM (inactive) | 48.2 µM (inactive) | > 100 µM (inactive) | – | 45.6 µM (inactive) | > 100 µM (inactive) | 17.9 µM (inactive) | > 100 µM (inactive) | 34.5 µM (inactive) | < 0.01 µM (active) | –
CC(=O)Oc1c(OC(C)C)c(C)c(O[Si](C(C)C)(C(C)C)C(C)C)c2[nH]c3ccccc3c12 | – | > 100 µM (inactive) | > 100 µM (inactive) | 67.1 µM (inactive) | > 45 µM (inactive) | 38.5 µM (inactive) | 67.3 µM (inactive) | > 88.3 µM (inactive) | > 100 µM (inactive) | > 100 µM (inactive) | > 100 µM (inactive) | 20.2 µM (inactive) | > 100 µM (inactive) | > 100 µM (inactive) | > 100 µM (inactive) | > 100 µM (inactive) | > 100 µM (inactive) | 25.5 µM (inactive) | 2.62 µM (inactive)

From ChEMBL document CHEMBL1201862, “PubChem BioAssay data set” (2004)
